Measurements from patent publication US7740775B2, “Method for the production of particles” (priority 2001, dated 2010).

Assay: Particle size of the isolated crystalline product observed under a microscope
[1] = two-stage mixing with two HFC 134A streams (FIG. 6 nozzle), no surfactant
[2] = two-stage mixing, co-precipitation of salicylic acid (20% w/v) and adipic acid (3% w/v) from acetone

| SMILES | particle size range [1] | particle size [2] | also measured |
| --- | --- | --- | --- |
| O=C(O)CCCCC(=O)O [adipic acid, hexanedioic acid] | 10-20 microns | around 10 microns | particle size range (comparative single-stage mixing with one HFC 134A stream, no surfactant): 20-100 microns; particle size range (single-stage mixing, HFC 134A, 1% w/w Antorox B12 DF surfactant): 20-200 microns; particle size (single-stage mixing, HFC 134A, 1% w/w Brij 30 added to 10% w/v solution in ethanol): < 10 micron |
| O=[N+]([O-])[O-].[Ag+] [silver nitrate] | ≤ 3 microns |  |  |
| CC(=O)Nc1ccc(O)cc1 [paracetamol, N-acetyl-p-aminophenol, reference compound] |  |  | particle size (two-stage mixing, HFC 134A, 8% w/v in methanol with 1% w/w Brij 30): < 3 micron |
| O=C(O)c1ccccc1O [salicylic acid] |  | below 3 microns |  |
